“Also recorded” adds a separate entry of the source.
Legend:
F508del CFTR [1] = target: T1, F508del CFTR (Homo sapiens, UniProt P13569, DEL508-508); parameters: Assessing the Impact of Corrector Combinations on Full-Length F508del CFTR Function; expressed in transfected cells; host or cells: Fisher rat thyroid (FRT) cells; human bronchial epithelial CFBE41o- cells; details: Figure 1B; read-out: corrector half-maximal effective concentration (EC50); cited from earlier work
R domain of CFTR = R domain of CFTR (Homo sapiens, UniProt P13569); test: Western blot of CFTR R domain in HEK-t cells; details: 3 µM VX661, 3 µM VX445, 2 µM 2a, 7m, 7a, normalised to actin and to untreated domain, mean ± sem
WT NBD1 CFTR domain = WT NBD1 CFTR domain (Homo sapiens, UniProt P13569); test: Western blot of CFTR single domain WT NBD1 in HEK-t cells; details: 3 µM VX661, 3 µM VX445, 2 µM 2a, 7m, 7a, normalised to actin and to untreated domain, mean ± sem
F508del NBD1 = F508del NBD1 (Homo sapiens, UniProt P13569, DEL508-508); test: Cycloheximide chase assay of F508del NBD1 in HEK-t cells; details: for effect on stability / half-life of F508del NBD1 versus DMSO control: cycloheximide chase, result in words; for F508del NBD1 expression after cycloheximide, relative to time 0: 3 µM VX661/VX445, 2 µM 2a/7m/7a, mean ± sem
Description: The stability of NBD1-F508del was evaluated according to a previously established procedure [38, 50, 51]. […] Cells were harvested at six different time points (after 0, 1, 2, 4, 6, and 8 h), and samples of whole-cell SDS extracts were subjected to immunoblot analysis.

HEK-t cells = type: cell-based; parameters: TDMax (maximum toxicity): unit not given here; details: 24 h incubation, mean ± SEM
Description: (§1) In both cases, media were supplemented with 10% FBS, 2 mM L-Glutamine, 1% PenStrep (100 U/mL), 1 mg/mL geneticin (G418), and 0.6 mg/mL zeocin as selection agents. Cells were grown under standard CO2 and temperature conditions. Confluence of cell was avoided to prevent loss of differentiation.
(§2) Cells were seeded into 48-well plates at a concentration of 0.3 × 10^5 cells per well. […] After exposition, cells were trypsinised and harvested for toxicity evaluation. To avoid an underestimation of the number of dead cells, the cells that were detached from the plates during exposure to the compounds were collected and considered. For each condition tested, at least four technical replicates were evaluated. In each well, at least 100 cells were considered.

CFBE41O^− cells = type: cell-based; details: 24 h incubation, mean ± SEM
Description: as §1, §2

FRT cells = type: cell-based; details: 24 h incubation, mean ± SEM
Description: as §1, §2

[2] = Trypan blue cell viability at the working concentrations, all three cell lines; type: cell-based; details: human (HEK-t, CFBE41O^−) and rat (FRT), in all three cell lines; for viability at 24 h, 3 µM: at 3 μM
Description: as §1, §2

F508del CFTR [3] = target: T1, F508del CFTR; test: YFP functional assay in FRT cells
Description: (§3) The YFP functional assay was applied to assess whether the increase in protein expression induced by treatment with the compounds under investigation correlated with an increase in F508del CFTR channel activity.
(§4) Cells were then incubated with 60 µL PBS plus forskolin (20 µM) and VX-770 (1 µM) for 25 min to maximally stimulate F508del-CFTR. The cells were then transferred to a microplate reader (Tristar2 S, Berthold Technologies, Bad Wildbad, Germany) equipped with 485 nm excitation and 535 nm emission filters.
(§5) Iodide influx was detected as fluorescence quenching as the I^− anion bound to intracellular YFP. After background subtraction and normalisation to the average fluorescence before NaI addition, the initial fluorescence decay rate (QR) was derived by fitting the signal with an exponential function.

F508del CFTR [4] = target: T1, F508del CFTR; test: YFP functional assay in CFBE41O^− cells
Description: as §3, §4, §5

MSD1 CFTR domain = MSD1 CFTR domain (Homo sapiens, UniProt P13569); test: Western blot of CFTR single domain MSD1 in HEK-t cells; details: 3 µM VX661, 3 µM VX445, 2 µM 2a, 7m, 7a, normalised to actin and to untreated domain (times of DMSO control), mean ± sem
[5] = 3 μM VX661, 3 μM VX445, 2 μM 2a, 7m, 7a, 18 h, forskolin + VX-770 stimulation

F508del NBD1, sequence (P13569 with tags, fused parts or gaps DEL508-508): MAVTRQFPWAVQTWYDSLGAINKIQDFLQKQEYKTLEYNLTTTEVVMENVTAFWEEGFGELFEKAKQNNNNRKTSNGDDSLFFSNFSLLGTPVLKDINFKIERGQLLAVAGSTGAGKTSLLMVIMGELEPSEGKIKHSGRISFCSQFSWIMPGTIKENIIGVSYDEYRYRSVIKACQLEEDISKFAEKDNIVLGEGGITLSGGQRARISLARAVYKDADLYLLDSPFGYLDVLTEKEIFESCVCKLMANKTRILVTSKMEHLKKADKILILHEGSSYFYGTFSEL
T1 sequence (P13569 with tags, fused parts or gaps DEL508-508): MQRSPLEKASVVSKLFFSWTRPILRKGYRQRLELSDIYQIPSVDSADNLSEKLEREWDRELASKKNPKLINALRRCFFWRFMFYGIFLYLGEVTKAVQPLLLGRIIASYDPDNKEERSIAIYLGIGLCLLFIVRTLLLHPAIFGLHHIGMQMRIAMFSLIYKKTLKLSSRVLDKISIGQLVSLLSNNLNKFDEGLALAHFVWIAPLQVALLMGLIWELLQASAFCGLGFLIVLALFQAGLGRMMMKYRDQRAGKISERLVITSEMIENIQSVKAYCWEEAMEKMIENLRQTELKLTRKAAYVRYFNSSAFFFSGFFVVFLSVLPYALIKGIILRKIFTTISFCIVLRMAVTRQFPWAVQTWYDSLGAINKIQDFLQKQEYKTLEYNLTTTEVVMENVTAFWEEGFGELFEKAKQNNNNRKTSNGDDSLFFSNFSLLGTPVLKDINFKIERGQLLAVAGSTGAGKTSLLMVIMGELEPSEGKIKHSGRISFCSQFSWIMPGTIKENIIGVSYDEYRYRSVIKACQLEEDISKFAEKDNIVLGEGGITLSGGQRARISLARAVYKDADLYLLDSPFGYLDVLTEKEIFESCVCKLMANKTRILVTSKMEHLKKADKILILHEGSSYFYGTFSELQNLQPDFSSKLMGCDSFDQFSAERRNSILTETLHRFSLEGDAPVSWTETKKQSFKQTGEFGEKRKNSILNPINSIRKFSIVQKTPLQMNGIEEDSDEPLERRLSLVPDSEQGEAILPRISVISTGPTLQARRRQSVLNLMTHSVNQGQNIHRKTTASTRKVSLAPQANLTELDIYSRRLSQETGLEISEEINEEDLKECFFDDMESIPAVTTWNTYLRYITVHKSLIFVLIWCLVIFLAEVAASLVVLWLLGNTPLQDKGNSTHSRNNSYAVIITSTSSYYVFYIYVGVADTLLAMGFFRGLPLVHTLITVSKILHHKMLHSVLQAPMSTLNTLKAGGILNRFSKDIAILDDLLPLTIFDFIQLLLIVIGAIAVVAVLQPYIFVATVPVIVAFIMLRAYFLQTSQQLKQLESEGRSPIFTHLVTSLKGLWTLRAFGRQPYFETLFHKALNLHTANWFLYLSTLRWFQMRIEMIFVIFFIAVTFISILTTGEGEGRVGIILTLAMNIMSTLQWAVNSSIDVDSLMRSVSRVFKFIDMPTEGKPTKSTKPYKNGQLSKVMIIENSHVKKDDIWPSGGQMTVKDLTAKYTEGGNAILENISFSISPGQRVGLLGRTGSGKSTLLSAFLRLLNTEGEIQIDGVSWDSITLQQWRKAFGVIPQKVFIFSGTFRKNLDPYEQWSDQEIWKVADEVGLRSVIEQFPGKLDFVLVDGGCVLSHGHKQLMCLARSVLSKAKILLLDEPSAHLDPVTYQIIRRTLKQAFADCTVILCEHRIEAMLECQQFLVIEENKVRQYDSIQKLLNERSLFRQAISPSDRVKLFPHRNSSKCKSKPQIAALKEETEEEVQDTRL
R domain of CFTR, sequence (P13569 645-834): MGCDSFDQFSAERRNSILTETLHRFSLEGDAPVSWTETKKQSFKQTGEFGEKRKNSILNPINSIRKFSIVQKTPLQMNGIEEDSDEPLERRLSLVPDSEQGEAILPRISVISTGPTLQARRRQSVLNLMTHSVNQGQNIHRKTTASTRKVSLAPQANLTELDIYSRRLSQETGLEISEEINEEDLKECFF
WT NBD1 CFTR domain, sequence (P13569 348-633): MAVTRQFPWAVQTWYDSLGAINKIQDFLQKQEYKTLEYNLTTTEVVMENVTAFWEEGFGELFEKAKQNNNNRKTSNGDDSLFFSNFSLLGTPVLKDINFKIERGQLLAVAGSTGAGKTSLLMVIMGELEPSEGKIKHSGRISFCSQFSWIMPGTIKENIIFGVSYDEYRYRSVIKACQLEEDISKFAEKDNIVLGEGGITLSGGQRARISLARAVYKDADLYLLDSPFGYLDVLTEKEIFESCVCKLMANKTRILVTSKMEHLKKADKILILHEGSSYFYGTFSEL
MSD1 CFTR domain, sequence (P13569 1-388): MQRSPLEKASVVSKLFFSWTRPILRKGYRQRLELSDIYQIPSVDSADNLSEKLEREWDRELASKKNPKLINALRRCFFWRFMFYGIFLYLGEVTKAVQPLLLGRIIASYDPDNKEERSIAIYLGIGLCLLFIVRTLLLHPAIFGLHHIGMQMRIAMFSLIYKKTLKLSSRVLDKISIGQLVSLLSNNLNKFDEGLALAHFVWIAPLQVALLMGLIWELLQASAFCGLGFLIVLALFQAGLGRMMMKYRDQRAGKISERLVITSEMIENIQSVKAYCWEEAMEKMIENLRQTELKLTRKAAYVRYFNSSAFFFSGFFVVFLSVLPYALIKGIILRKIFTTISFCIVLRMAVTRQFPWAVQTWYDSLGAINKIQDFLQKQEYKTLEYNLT

## CSc1cccc(Nc2nc(-c3cccc(Cl)c3)cs2)c1 [FCG]
F508del CFTR [1]
  EC50: 5.3 µM

## CC(C)(CO)c1cc2cc(NC(=O)C3(c4ccc5c(c4)OC(F)(F)O5)CC3)c(F)cc2n1C[C@@H](O)CO [VX661, tezacaftor]
R domain of CFTR
  R domain expression level: 1.06± 0.09
WT NBD1 CFTR domain
  WT NBD1 expression level: 1.00± 0.15
F508del NBD1; 2 h after cycloheximide
  F508del NBD1 expression level, % of the initial level: 62%
F508del NBD1; 4 h after cycloheximide
  F508del NBD1 expression level, % of the initial level: 45%
F508del NBD1; 6 h after cycloheximide
  F508del NBD1 expression level, % of the initial level: 26%
F508del NBD1
  effect on stability / half-life of F508del NBD1 versus DMSO control: did not prolong the half-life
F508del NBD1; time 0 h
  F508del NBD1 expression after cycloheximide, relative to time 0: 1.00 ± 0.02
F508del NBD1; time 1 h
  F508del NBD1 expression after cycloheximide, relative to time 0: 0.73 ± 0.12
F508del NBD1; time 2 h
  F508del NBD1 expression after cycloheximide, relative to time 0: 0.62 ± 0.13
F508del NBD1; time 4 h
  F508del NBD1 expression after cycloheximide, relative to time 0: 0.45 ± 0.11
F508del NBD1; time 6 h
  F508del NBD1 expression after cycloheximide, relative to time 0: 0.26 ± 0.08
F508del NBD1; time 8 h
  F508del NBD1 expression after cycloheximide, relative to time 0: 0.09 ± 0.03
HEK-t cells
  TD50 (concentration required to achieve half maximum toxicity): 27.15 ± 17.88 µM
CFBE41O^− cells
  TD50 (concentration required to achieve half maximum toxicity): 7.51 ± 2.22 µM
  TDMax (maximum toxicity): 15.62 ± 0.06 µM
FRT cells
  TD50 (concentration required to achieve half maximum toxicity): 11.09 ± 3.22 µM
  TDMax (maximum toxicity): 23.59 ± 0.08 µM
[2]
  viability at 24 h, 3 µM: ≥ 90%

## O=C(c1ccccc1)c1sc(NC(=O)C2(c3ccc4c(c3)OCO4)CC2)nc1-c1ccccc1 [2a]
F508del CFTR [3]; [5]
  increase of YFP initial quenching rate (QR, iodide influx) over the control condition: significantly increased
F508del CFTR [3]; result in words
  F508del CFTR channel activity (QR) of double combinations with VX445, compared with VX445 alone: none of the combinations with compound 2a produced an effect greater
  F508del CFTR channel activity (QR) of double combinations with VX661, compared with VX661 alone: none of the combinations with compound 2a produced an effect greater
F508del CFTR [4]; [5]
  increase of YFP initial quenching rate (QR, iodide influx) over the control condition: significantly increased
F508del CFTR [4]; result in words
  F508del CFTR channel activity (QR) of double combinations with VX445, compared with VX445 alone: none of the combinations with compound 2a produced an effect greater
  F508del CFTR channel activity (QR) of double combinations with VX661, compared with VX661 alone: none of the combinations with compound 2a produced an effect greater
MSD1 CFTR domain
  MSD1 expression level: 1.04 ± 0.05
F508del NBD1; 2 h after cycloheximide
  F508del NBD1 expression level, % of the initial level: 78%
F508del NBD1; 4 h after cycloheximide
  F508del NBD1 expression level, % of the initial level: 63%
F508del NBD1; 6 h after cycloheximide
  F508del NBD1 expression level, % of the initial level: 45%
F508del NBD1
  effect on stability / half-life of F508del NBD1 versus DMSO control: significant increase; also recorded: significantly higher
F508del NBD1; time 0 h
  F508del NBD1 expression after cycloheximide, relative to time 0: 1.00 ± 0.08
F508del NBD1; time 1 h
  F508del NBD1 expression after cycloheximide, relative to time 0: 0.87 ± 0.05
F508del NBD1; time 2 h
  F508del NBD1 expression after cycloheximide, relative to time 0: 0.78 ± 0.08
F508del NBD1; time 4 h
  F508del NBD1 expression after cycloheximide, relative to time 0: 0.63 ± 0.03
F508del NBD1; time 6 h
  F508del NBD1 expression after cycloheximide, relative to time 0: 0.45± 0.06
F508del NBD1; time 8 h
  F508del NBD1 expression after cycloheximide, relative to time 0: 0.34 ± 0.03
HEK-t cells
  TD50 (concentration required to achieve half maximum toxicity): 2.44 ± 1.03 µM
  TDMax (maximum toxicity): 5.78 ± 0.04
CFBE41O^− cells
  TD50 (concentration required to achieve half maximum toxicity): 10.11 ± 1.80 µM
  TDMax (maximum toxicity): 14.44 ± 0.06 µM
FRT cells
  TD50 (concentration required to achieve half maximum toxicity): 9.24 ± 2.25 µM
  TDMax (maximum toxicity): 20.56 ± 0.06 µM
[2]; at 2 μM
  viability at 24 h, 2 µM: ≥ 90%

## Cc1nn(C)cc1S(=O)(=O)NC(=O)c1ccc(-n2ccc(OCC(C)(C)C(F)(F)F)n2)nc1N1C[C@@H](C)CC1(C)C [VX445, elexacaftor]
R domain of CFTR
  R domain expression level: 1.01 ± 0.04
WT NBD1 CFTR domain
  WT NBD1 expression level: 1.02 ± 0.18
F508del NBD1; 2 h after cycloheximide
  F508del NBD1 expression level, % of the initial level: 65%
F508del NBD1; 4 h after cycloheximide
  F508del NBD1 expression level, % of the initial level: 42%
F508del NBD1; 6 h after cycloheximide
  F508del NBD1 expression level, % of the initial level: 27%
F508del NBD1
  effect on stability / half-life of F508del NBD1 versus DMSO control: did not prolong the half-life
F508del NBD1; time 0 h
  F508del NBD1 expression after cycloheximide, relative to time 0: 1.00 ± 0.04
F508del NBD1; time 1 h
  F508del NBD1 expression after cycloheximide, relative to time 0: 0.75 ± 0.12
F508del NBD1; time 2 h
  F508del NBD1 expression after cycloheximide, relative to time 0: 0.65 ± 0.07
F508del NBD1; time 4 h
  F508del NBD1 expression after cycloheximide, relative to time 0: 0.42 ± 0.09
F508del NBD1; time 6 h
  F508del NBD1 expression after cycloheximide, relative to time 0: 0.27 ± 0.05
F508del NBD1; time 8 h
  F508del NBD1 expression after cycloheximide, relative to time 0: 0.14 ± 0.03
HEK-t cells
  TD50 (concentration required to achieve half maximum toxicity): 9.60 ± 2.25 µM
CFBE41O^− cells
  TD50 (concentration required to achieve half maximum toxicity): 11.75 ± 3.42 µM
  TDMax (maximum toxicity): 23.60 ± 0.07 µM
FRT cells
  TD50 (concentration required to achieve half maximum toxicity): 4.29 ± 0.32 µM
  TDMax (maximum toxicity): 10.79 ± 0.01 µM
[2]
  viability at 24 h, 3 µM: ≥ 90%
